The values below come from US12011433B2 (UNIVERSITÁ DEGLI STUDI DI BARI “ALDO MORO”, priority 2016, dated 2024).

Marks after values point to notes of the source that are not given here.

One may read the Papp B→A as the apparent permeability from the basolateral to the apical side of a cell layer. Broadly, the Papp A→B is the apparent permeability from the apical to the basolateral side of a cell layer. As a reminder, the inhibition is the relative decrease from the control value, in per cent. Higher therefore signals a strong effect.

Data set [1] in a line: Caco-2 monolayer efflux assay, Apparent Permeability (Papp), with or without GLUT-1 inhibitor phloretin. Format: in vitro ADME, Human. The note with it: human, compound alone. On the procedure:
(§1) In a monolayer efflux assay, the Apparent Permeability (Papp) in both basolateral to apical [Papp(B→A)] and apical to basolateral [Papp(A→B)] directions was determined for each compound (FIG. 2). Human colonic adenocarcinoma cell line (Caco-2) presents a facilitated transport system at the apical and basolateral surface. Caco-2 cells express high levels of GLUT-1 that are localized to the basolateral membrane and transport glucose to the serosal side.
(§2) The Papp(B→A) flux of each compound alone or in the presence of phloretin, a GLUT-1 inhibitor, has been determined. Since GLUT-1 is express in the basolateral compartment a high B→A flux means that the transport is GLUT-1 mediated because B→A flux represents the active transport.
(§3) A→B flux, which represents the passive transport, has also been determined for each compound (Table 2).
In general terms: Caco-2 cells form a polarised layer with tight junctions and transporters.

For the next data set, the system named is Caco-2 cells. The description is as above. Format: in vitro ADME, Human. To be noted: compound alone. As for the experimental part: as §1, §2, §3
Data set [2] deals with COX-2 (Mus musculus (Mouse), UniProt Q05769). In words: COX-2 expression in LPS-treated BV2 microglial cells, western blotting. Format: cell-based. To be noted: LPS-stimulated BV2 cells. As for the experimental part: Cells were then incubated for different times at 37° C. with LPS, as pro-inflammatory stimulus. Experiments included cells grown in medium alone (control).
(§4) The tissue and cell culture lysates were vortexed for 15-20 s and, then, centrifuged at 12,800×g for 20 min. The protein concentration in the supernatant was spectrophotometrically determined by Bradford's protein assay (Bradford, 1976). Protein samples were diluted with sample buffer (0.5 M Tris-HCl pH=6.8, 10% glycerol, 10% (w/v) SDS, 5% 2-mercaptoethanol, 0.05% (w/v) bromophenol blue) and then boiled for 3 min. Proteins (25 μg/lane) and prestained standards (BioRad Laboratories, Hercules, CA, USA) were loaded on 7% or 12% SDS precast polyacrylamide gels (BioRad Laboratories).
After electrophoresis, the resolved proteins were transferred from the gel to nitrocellulose membranes. A blotting buffer [20 mMTris/150 mM glycine, pH=8.0, 20% (v/v) methanol] was used for gel and membrane saturation and blotting. […]
For orientation: A western blot detects proteins with antibodies after separation by electrophoresis.

A further data set deals with COX-1 (Mus musculus (Mouse), UniProt P22437). In words: COX-1 expression in brain regions of LPS-treated mice, immunoblotting. The data set is classed as in vivo. The note with it: for COX-1 expression reduction (%): LPS-treated mice, mofezolac 6 mg/kg i.p. On the procedure: Substantia nigra pars compacta (SNpc), Hippocampus, Frontal lobe and Caudate from mice brains were minced in ice-cold PBS, washed and then homogenized in a buffer containing lysis buffer (50 mM Tris pH 8, 0.02 g/mL NaCl, 0.2% SDS, 1% Triton-X, 4 U/ml aprotinin, 2 mM leupeptin, 100 mM phenylmethanesulfonyl fluoride).
as §4
After electrophoresis, the resolved proteins were transferred from the gel to nitrocellulose membranes. A blotting buffer [20 mMTris/150 mM glycine, pH=8.0, 20% (v/v) methanol] was used for gel and membrane saturation and blotting. Then, membranes were incubated in the dark with 1 μg/mL mouse monoclonal antibody (MoAb) anti-COX-1 and rabbit polyclonal Ab anti-COX-2 (1:1000) (both from AbCam, Cambridge, UK), rabbit polyclonal Ab anti p-IkB-α (1:200), mouse polyclonal Ab anti β-actin (1:500) (all from Santa Cruz Biotechnology), mouse MoAb anti-glial fibrillary acidic protein (GFAP) (1:200) and mouse mAb anti-ionized calcium-binding adapter molecule-1 (Iba-1) (1:200) (both from Merck Millipore) overnight at 4° C. The membranes were washed with 0.1% Tween 20-PBS (for 20 min, 3 times) and then incubated with the secondary antibody diluted 1:2000 for 60 min. Bands were visualized by chemiluminescence detection (Invitrogen, Milan, Italy). The β-actin level was used as a protein loading control. For tissue analysis, obtained bands were normalized to the level of β-actin performed for each cerebral area tested. For cell cultures the bands were normalized to the β-actin level in each experimental condition.
(§5) On the seventh day, mice were anesthetized with tribromoethanol (250 mg/Kg, i.p.) and positioned in a stereotactic apparatus (Kopf Instruments, Tujunga, CA, USA). […] Sterotaxic injections coordinates were: 2.3 mm dorsal/ventral, 1.0 mm lateral, and 0.5 mm anterior/posterior from the bregma.

The target in data set [3] is COX-2 (Homo sapiens, UniProt P35354). In words: colorimetric COX Inhibitor screening Assay (peroxidase component, oxidized TMPD at 590 nm). To be noted: at 50 μM, the highest concentration tested. Format: biochemical. As for the experimental part:
Human cyclooxygenase inhibitory activity was determined by a colorimetric COX Inhibitor screening Assay which measures the peroxidase component of the cyclooxygenases, monitoring the appearance of oxidized N,N,N′,N′-tetramethyl-p-phenylenediamine (TMPD) at 590 nm.

In a further data set the test system is p-IkBα. Description: NF-kB activation (p-IkBα) in brain areas of LPS-treated mice, immunoblotting. The data set is classed as in vivo. The note with it: all tested brain areas of LPS-treated mice. As for the experimental part:
The protein concentration in the supernatant was spectrophotometrically determined by Bradford's protein assay (Bradford, 1976). […] Proteins (25 μg/lane) and prestained standards (BioRad Laboratories, Hercules, CA, USA) were loaded on 7% or 12% SDS precast polyacrylamide gels (BioRad Laboratories). After electrophoresis, the resolved proteins were transferred from the gel to nitrocellulose membranes. A blotting buffer [20 mMTris/150 mM glycine, pH=8.0, 20% (v/v) methanol] was used for gel and membrane saturation and blotting. […] Bands were visualized by chemiluminescence detection (Invitrogen, Milan, Italy). The β-actin level was used as a protein loading control. For tissue analysis, obtained bands were normalized to the level of β-actin performed for each cerebral area tested. For cell cultures the bands were normalized to the β-actin level in each experimental condition. […] VM in all the Figures) once a day for 10 days. […] On the seventh day, mice were anesthetized with tribromoethanol (250 mg/Kg, i.p.) and positioned in a stereotactic apparatus (Kopf Instruments, Tujunga, CA, USA).

A further data set concerns PGE2. In words: PGE2 release in brain specimens from LPS-treated mice. Format: in vivo. The note with it: for PGE2 release reduction (%): LPS-treated mice, mofezolac 6 mg/kg i.p.; for PGE2 release (ng/mg tissue): LPS or M+LPS treated mice. As for the experimental part:
as §5
Microglial cells were cultured in 6-well plates at a density of 3×10^6 cells/well. […] The cultures were maintained at 37° C. for 24 and 48 h in a humidified air containing a 5% CO2. PGE2 levels were determined in the supernatant using a competitive binding immunoassay (Cayman Chemical, Ann Arbor, MI, USA) following the manufacturer's instructions. Unstimulated cells were included as a control. PGE2 amount determination in the brain was performed in the tissue extracts, according to the manufacturer's instructions. The optical density was measured at λ=405-420 nm with precision microplate reader and the amount of PGE2 (ng/mL) was calculated using a PGE2 standard curve.

Chain of COX-2 (Homo sapiens, UniProt P35354) (P35354 18-604 limits assumed): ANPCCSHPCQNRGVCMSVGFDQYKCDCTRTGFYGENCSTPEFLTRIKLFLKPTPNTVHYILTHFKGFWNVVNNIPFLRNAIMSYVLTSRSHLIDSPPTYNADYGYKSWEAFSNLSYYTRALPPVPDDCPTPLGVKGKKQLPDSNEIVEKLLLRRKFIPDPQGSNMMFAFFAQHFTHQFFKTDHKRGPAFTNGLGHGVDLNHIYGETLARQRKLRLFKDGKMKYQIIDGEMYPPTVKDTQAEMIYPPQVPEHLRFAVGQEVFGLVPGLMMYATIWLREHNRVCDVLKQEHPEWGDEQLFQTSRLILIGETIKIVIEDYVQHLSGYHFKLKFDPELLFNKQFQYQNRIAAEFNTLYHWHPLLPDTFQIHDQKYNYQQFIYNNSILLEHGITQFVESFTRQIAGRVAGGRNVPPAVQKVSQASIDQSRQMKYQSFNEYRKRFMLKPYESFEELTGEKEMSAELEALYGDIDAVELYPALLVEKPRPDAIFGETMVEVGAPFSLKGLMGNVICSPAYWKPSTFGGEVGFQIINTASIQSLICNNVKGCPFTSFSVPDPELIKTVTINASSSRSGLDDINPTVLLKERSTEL

Turning to `COc1ccc(-c2noc(CC(=O)O)c2-c2ccc(OC)cc2)cc1` [mofezolac, 2-(3,4-bis(4-methoxyphenyl)isoxazol-5-yl)acetic acid], the Papp B→A (in data set [1]; in the data set on Caco-2 cells) was 46.1 ×10⁻⁶ cm/s in each case. For the same compound, the “Papp A→B” value in the data set with Caco-2 cells was determined as 41.4 ×10⁻⁶ cm/s. The COX-2 protein levels result at COX-2 [2] is listed as “unaffected”. The “COX-1 expression reduction (%)” value on COX-1 (Caudate) amounted to 95%; at COX-1 (Frontal lobe) it was 94%; at COX-1 (Hippocampus), 82%; on COX-1 (Substantia nigra), 89%. Further, at COX-1 (LPS challenged mice, all brain areas tested), the COX-1 expression result is reported as “significantly reduction of COX-1 expression”. Also, 50 µM produced 38% inhibition against COX-2 [3]. In the data set with p-IkBα, the p-IkBα entry is on record as “significant reduction”. The “PGE2 release reduction (%)” value was found to be 67% with PGE2 (Caudate), 49% in the data set with PGE2 (Frontal lobe), 48% in the data set on PGE2 (Hippocampus) and 39% in the data set on PGE2 (Substantia nigra). Moreover, the “PGE2 release (ng/mg tissue)” value in the data set with PGE2 (Caudate-Putamen) is given as 1.84 + 0.035 ^d ng/mg tissue; in the data set with PGE2 (Frontal lobe), 2.40 ± 0.046 ^d ng/mg tissue; with PGE2 (Hippocampus) it was 2.33 ± 0.032 ^d ng/mg tissue; in the data set on PGE2 (Substantia nigra), 3.31 ± 0.079 ^d ng/mg tissue.
